In patent publication US20170314056A1, “METHOD OF USING NEAR INFRARED FLUORESCENT DYES FOR IMAGING AND TARGETING CANCERS” (priority 2010, published 2017):
Entries after “also recorded” stand apart in the source; their conditions may differ.

Legend:
ARCaPM tumor = experiment: Dye biodistribution in ARCaPM tumor-bearing mice; assay type: in vivo, mouse
Excerpt: To assess tissue distribution of these dyes, athymic mice without tumor implantation were sacrificed at 0, 6 and 80 hrs (N=3 each) after i.v. injection of IR-783 dye at a dose of 10 nmol/20 g. Dissected organs were subjected to NIR imaging by a Kodak Imaging Station 4000 MM. In another study the mice bearing orthotopic ARCaPM tumors were subjected to NIR imaging at 0.5, 24, 48, 72 and 96 hrs after IR-783 i.v. administration at a dose of 10 nmol/20 g. In some cases, we also assessed the biodistribution of NIR dye by a spectral method in tissues harvested from athymic mice bearing subcutaneous ARCaPM tumors (N=6). Tumors and normal host organs were homogenized in PBS, centrifuged at 15,000×g for 15 minutes to recover the supernatant fraction after the mice were injected i.p. with IR-783 at a dose of 10 nmol/20 g. The presence of the organic dyes (parental IR-783 and its metabolites) in tissues was estimated spectrophotometrically at an emission wavelength of 820 nm by a PTI Near Infrared Fluorometer QuantaMaster™ 50 (PTI, Birmingham, N.J.) equipped with a 75-watt xenon arc lamp under 500 to 1700 nm InGaAs detector using known concentrations of IR-783 as the standard (28). In other cases, tumor tissues harvested from mice were stored in formalin from 1 week to 3 months, and fluorescence images were obtained and compared.

[1] = Systemic toxicity of IR-783 in C57BL/6 mice; assay type: in vivo, mouse; details: normal C57BL/6 mice
Description: The systemic toxicity of IR-783 was investigated in C57BL/6 mice (National Cancer Institute, Frederick, Md.) by injecting the dye by an i.p. route. The mice (N=8 per group) were subdivided into 4 groups and received PBS as control and IR-783 i.p. injection daily at the following doses: 0.375 mg/kg (imaging dose), 3.75 mg/kg and 37.5 mg/kg. […] The histomorphologic appearance of their vital organs was assessed at the time of sacrifice.

[2] = Physicochemical properties of the dye
[3] = aqueous media; cited from earlier work

2-[2-[2-Chloro-3-[2-[1,3-dihydro-3,3-dimethyl-1-(4-sulfobutyl)-2H-indol-2-ylidene]-ethylidene]-1-cyclohexen-1-yl]-ethenyl]-3,3-dimethyl-1-(4-sulfobutyl)-3H-indolium [IR-783]
dye signal in tumor tissue (ARCaPM tumor; 24 hrs after dye, ARCaPM tumor, in vivo and ex vivo imaging): accumulate in tumor tissues; also recorded: strong signals
signal to noise ratios in tumor specimens (ARCaPM tumor; in vivo whole body and ex vivo analysis): exceeding 25
apparent concentration of dye and its metabolites in tumors versus normal tissues (ARCaPM tumor; light emission intensity at 820 nm, P<0.05, 3 determinations): ~10 fold
signals in normal organs (ARCaPM tumor; liver, lung, heart, spleen and kidneys): very low signals
time at which tumors still retained dye (ARCaPM tumor; orthotopic ARCaPM tumor, i.v. 10 nmol/20 g): ≥ 4 days
effect on body weights [1]: did not affect body weights
histopathology of vital organs at the time of sacrifice [1]: No abnormal histopathology
systemic toxicity ([1]; i.p. daily 0.375, 3.75 and 37.5 mg/kg, one month): no systemic toxicity
photostability [2]: relatively photostable
water solubility [2]: water-soluble
maximum absorption [3]: 782 nm
